According to the NIST ThermoML archive (doi:10.1016/j.jct.2005.07.015):

Details: Liquid, Closed cell (Static) method

CCO [ethanol]
Details	vapor or sublimation pressure [kPa]
298.15 K	7.878
303.15 K	10.47
308.15 K	13.77
313.15 K	17.91
318.15 K	23.07
323.15 K	29.46
